Assay results: patent publication US10414763B2 (CANCER RESEARCH TECHNOLOGY LIMITED, priority 2014, dated 2019)

The compounds below were run against T1, full-length human PKCι (Homo sapiens, UniProt P41743) (assay: PKCι IC50 IMAP fluorescence polarisation assay, full-length enzyme, 150 μM ATP). Details: read-out: IC50 in IMAP assay against full length PKCi at 150 μM ATP.
T1 construct: Recombinant, full-length human PKCι expressed in Sf21 insect cells is also commercially available; purchased EMD Millipore; host or cells: Sf21 insect cells (baculovirus)
T1 sequence (P41743 1-596): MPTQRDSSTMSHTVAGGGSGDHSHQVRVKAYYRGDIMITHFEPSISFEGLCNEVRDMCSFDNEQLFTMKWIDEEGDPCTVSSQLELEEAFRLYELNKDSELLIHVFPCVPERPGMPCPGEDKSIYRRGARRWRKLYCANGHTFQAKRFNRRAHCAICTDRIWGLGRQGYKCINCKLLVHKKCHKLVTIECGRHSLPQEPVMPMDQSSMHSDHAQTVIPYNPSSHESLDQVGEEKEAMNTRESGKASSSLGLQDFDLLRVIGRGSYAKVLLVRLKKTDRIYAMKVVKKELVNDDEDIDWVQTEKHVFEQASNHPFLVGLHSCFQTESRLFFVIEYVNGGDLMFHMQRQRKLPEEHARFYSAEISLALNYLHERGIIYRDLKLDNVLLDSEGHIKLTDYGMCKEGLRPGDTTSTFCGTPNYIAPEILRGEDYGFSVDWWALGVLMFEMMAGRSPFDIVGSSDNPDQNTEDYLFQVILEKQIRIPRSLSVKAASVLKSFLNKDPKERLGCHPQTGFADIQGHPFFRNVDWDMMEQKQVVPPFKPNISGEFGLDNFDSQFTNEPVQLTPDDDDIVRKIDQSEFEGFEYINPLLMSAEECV
Assay type: biochemical
Summary of the method: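 IMAP fluorescence polarisation kinase assay: 15 pM baculovirus-expressed human PKCiota with 100 nM FAM-pseudosubstrate peptide and 150 μM ATP, 1 h at 25 °C. IMAP detection reagent then 2 h at 25 °C before FP measurement. Inhibition referenced to no-compound and no-enzyme controls for IC50 fitting.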

Row | Structure (SMILES) | IC50 [nM]
1 | Cc1cc2c(-c3nc(N(C)[C@H]4CCNCC4(C)C)c4c(C5CC5)cncc4n3)ccnc2[nH]1 [Example 212, [5-Cyclopropyl-2-(2-methyl-1H-pyrrolo[2,3-b]pyridin-4-yl)-pyrido[3,4-d]pyrimidin-4-yl]-((S)-3,3-dimethyl-piperidin-4-yl)-methyl-amine] | < 100
2 | CN(c1nc(-c2ccnc3[nH]c(C(C)(C)C)cc23)nc2cncc(C3CCC3)c12)C1CCNCC1 [Example 213, [2-(2-tert-Butyl-1H-pyrrolo[2,3-b]pyridin-4-yl)-5-cyclobutyl-pyrido[3,4-d]pyrimidin-4-yl]-methyl-piperidin-4-yl-amine] | < 100
3 | FC(F)(F)c1cncc2nc(-c3ccnc4[nH]c5ccccc5c34)nc(N3CCNCC3)c12 [Example 215, 4-(4-Piperazin-1-yl-5-trifluoromethyl-pyrido[3,4-d]pyrimidin-2-yl)-9H-pyrido[2,3-b]indole] | 100 to 1000
4 | FC(F)(F)c1cncc2nc(-c3ccnc4[nH]c5ccccc5c34)nc(N3CC[C@@H]4CNC[C@@H]43)c12 [Example 216, 4-((3R,6R)-4-Hexahydro-pyrrolo[3,4-b]pyrrol-1-yl-5-trifluoromethyl-pyrido[3,4-d]pyrimidin-2-yl)-9H-pyrido[2,3-b]indole] | 100 to 1000
5 | N[C@H]1C[C@@H](Nc2nc(-c3ccnc4[nH]c5ccccc5c34)nc3cncc(C(F)(F)F)c23)C1 [Example 218, cis-N-[2-(9H-Pyrido[2,3-b]indol-4-yl)-5-trifluoromethyl-pyrido[3,4-d]pyrimidin-4-yl]-cyclobutane-1,3-diamine] | 100 to 1000
6 | NC1CCN(c2nc(-c3ccnc4[nH]c5ccccc5c34)nc3cncc(C(F)(F)F)c23)C1 (stereo not drawn) [Example 221, 1-[2-(9H-Pyrido[2,3-b]indol-4-yl)-5-trifluoromethyl-pyrido[3,4-d]pyrimidin-4-yl]-pyrrolidin-3-ylamine] | 100 to 1000
7 | CC1(C)CNCC[C@@H]1Nc1nc(-c2ccnc3[nH]c(C(F)(F)F)cc23)nc2cncc(C3CC3)c12 [Example 227, [5-Cyclopropyl-2-(2-trifluoromethyl-1H-pyrrolo[2,3-b]pyridin-4-yl)-pyrido[3,4-d]pyrimidin-4-yl]-((S)-3,3-dimethyl-piperidin-4-yl)-amine] | < 100
8 | CC1(C)CNCC[C@@H]1Nc1nc(-c2ccnc3[nH]c(C(F)(F)F)cc23)nc2cncc(C3CCC3)c12 [Example 228, [5-Cyclobutyl-2-(2-trifluoromethyl-1H-pyrrolo[2,3-b]pyridin-4-yl)-pyrido[3,4-d]pyrimidin-4-yl]-((S)-3,3-dimethyl-piperidin-4-yl)-amine] | < 100
9 | CC1(C)CNCC[C@@H]1Nc1nc(-c2ccnc3[nH]c(-c4cc(F)ccc4Cl)cc23)nc2cncc(C3CC3)c12 [Example 229, {2-[2-(2-Chloro-5-fluoro-phenyl)-1H-pyrrolo[2,3-b]pyridin-4-yl]-5-cyclopropyl-pyrido[3,4-d]pyrimidin-4-yl}-((S)-3,3-dimethyl-piperidin-4-yl)-amine] | < 100
10 | FC1CNCCC(Nc2nc(-c3ccnc4[nH]c5ccccc5c34)nc3cncc(C4CCC4)c23)C1 (stereo not drawn) [Example 232, [5-Cyclobutyl-2-(9H-pyrido[2,3-b]indol-4-yl)-pyrido[3,4-d]pyrimidin-4-yl]-(6-fluoro-azepan-4-yl)-amine] | < 100
11 | c1ccc(-n2cnc(Nc3cc(-c4nc(N5CCC6CNCCC65)c5c(C6CC6)cncc5n4)ccn3)n2)cc1 (stereo not drawn) [Example 235, [4-[5-Cyclopropyl-4-(octahydro-pyrrolo[3,2-c]pyridin-1-yl)-pyrido[3,4-d]pyrimidin-2-yl]-pyridin-2-yl}-(1-phenyl-1H-1,2,4-triazol-3-yl)-amine] | < 100
12 | O[C@]12CCN(c3nc(-c4ccnc(Nc5ncn(-c6ccccc6)n5)c4)nc4cncc(C5CC5)c34)[C@H]1CCNC2 [Example 236] | < 100
13 | c1ccc(Cn2cnc(Nc3cc(-c4nc(N5CCC6CNCCC65)c5c(C6CC6)cncc5n4)ccn3)n2)cc1 (stereo not drawn) [Example 239, (1-Benzyl-1H-1,2,4-triazol-3-yl)-{4-[5-cyclopropyl-4-(octahydro-pyrrolo[3,2-c]pyridin-1-yl)-pyrido[3,4-d]pyrimidin-2-yl]-pyridin-2-yl}-amine] | < 100
14 | CC1(C)CNCC[C@@H]1Nc1nc(-c2ccnc(Nc3nc4ccccn4n3)c2)nc2cncc(C3CC3)c12 [Example 241, [5-Cyclopropyl-2-[2-([1,2,4]triazolo[1,5-a]pyridin-2-ylamino)-pyridin-4-yl]-pyrido[3,4-d]pyrimidin-4-yl}-((S)-3,3-dimethyl-piperidin-4-yl)-amine] | < 100
15 | CC1(C)CNCC[C@@H]1Nc1nc(-c2ccnc(Nc3ncn(Cc4ccccc4)n3)c2)nc2cncc(C3CC3)c12 [Example 242, {2-[2-(1-Benzyl-1H-1,2,4-triazol-3-ylamino)-pyridin-4-yl]-5-cyclopropyl-pyrido[3,4-d]pyrimidin-4-yl}-((S)-3,3-dimethyl-piperidin-4-yl)-amine] | < 100
16 | CC1(C)CNCC[C@@H]1Nc1nc(-c2ccnc(Nc3ncn(-c4ccccc4)n3)c2)nc2cncc(C3CC3)c12 [Example 243, {5-Cyclopropyl-2-[2-(1-phenyl-1H-1,2,4-triazol-3-ylamino)-pyridin-4-yl]-pyrido[3,4-d]pyrimidin-4-yl}-((S)-3,3-dimethyl-piperidin-4-yl)-amine] | < 100
17 | c1ccn2nc(Nc3cc(-c4nc(N5CCC6NCCCC65)c5c(C6CC6)cncc5n4)ccn3)nc2c1 (stereo not drawn) [Example 244, {4-[5-Cyclopropyl-4-(octahydro-pyrrolo[3,2-b]pyridin-1-yl)-pyrido[3,4-d]pyrimidin-2-yl]-pyridin-2-yl}-[1,2,4]triazolo[1,5-a]pyridin-2-yl-amine] | < 100
18 | c1ccc(-n2cnc(Nc3cc(-c4nc(N5CCC6NCCCC65)c5c(C6CC6)cncc5n4)ccn3)n2)cc1 (stereo not drawn) [Example 245, {4-[5-Cyclopropyl-4-(octahydro-pyrrolo[3,2-b]pyridin-1-yl)-pyrido[3,4-d]pyrimidin-2-yl]-pyridin-2-yl}-(1-phenyl-1H-1,2,4-triazol-3-yl)-amine] | < 100
19 | NC[C@@H]1CCN(c2nc(-c3ccnc4[nH]c5ccccc5c34)nc3cncc(C4CCC4)c23)C1 [Example 248, C-{(S)-1-[5-Cyclobutyl-2-(9H-pyrido[2,3-b]indol-4-yl)-pyrido[3,4-d]pyrimidin-4-yl]-pyrrolidin-3-yl}-methylamine] | < 100

Continued, values first:

Row | IC50 [nM] | Structure (SMILES)
20 | < 100 | Fc1ccc(F)c(Nc2cc(-c3nc(NC45CCNCC4C5)c4c(C5CCC5)cncc4n3)ccn2)n1 (stereo not drawn) [Example 209, (3-Aza-bicyclo[4.1.0]hept-6-yl)-{5-cyclobutyl-2-[2-(3,6-difluoro-pyridin-2-ylamino)-pyridin-4-yl]-pyrido[3,4-d]pyrimidin-4-yl}-amine]
21 | < 100 | CC1(C)CNCC[C@@H]1Nc1nc(-c2ccnc(Nc3ncccc3F)c2)nc2cncc(C3CCC3)c12 [Example 210, {5-Cyclobutyl-2-[2-(3-fluoro-pyridin-2-ylamino)-pyridin-4-yl]-pyrido[3,4-d]pyrimidin-4-yl}-((S)-3,3-dimethyl-piperidin-4-yl)-amine]
22 | < 100 | CC1(C)CNCC[C@@H]1Nc1nc(-c2ccnc(Nc3ncc(F)cc3F)c2)nc2cncc(C3CCC3)c12 [Example 211, {5-Cyclobutyl-2-[2-(3,5-difluoro-pyridin-2-ylamino)-pyridin-4-yl]-pyrido[3,4-d]pyrimidin-4-yl}-((S)-3,3-dimethyl-piperidin-4-yl)-amine]
23 | < 100 | NC1CCN(c2nc(-c3ccnc4[nH]c5ccccc5c34)nc3cncc(C4CCC4)c23)C1 (stereo not drawn) [Example 214, 1-[5-Cyclobutyl-2-(9H-pyrido[2,3-b]indol-4-yl)-pyrido[3,4-d]pyrimidin-4-yl]-pyrrolidin-3-ylamine]
24 | < 100 | CC1(C)CNCC[C@@H]1Nc1nc(-c2ccnc3[nH]c4ccccc4c23)nc2cncc(C(F)(F)F)c12 [Example 217, ((S)-3,3-Dimethyl-piperidin-4-yl)-[2-(9H-pyrido[2,3-b]indol-4-yl)-5-trifluoromethyl-pyrido[3,4-d]pyrimidin-4-yl]-amine]
25 | < 100 | OC1CNCCC(Nc2nc(-c3ccnc4[nH]c5ccccc5c34)nc3cncc(C(F)(F)F)c23)C1 (stereo not drawn) [Example 219, 5-[2-(9H-Pyrido[2,3-b]indol-4-yl)-5-trifluoromethyl-pyrido[3,4-d]pyrimidin-4-ylamino]-azepan-3-ol]
26 | < 100 | CN(c1nc(-c2ccnc3[nH]c4ccccc4c23)nc2cncc(C(F)(F)F)c12)C1CC(N)C(O)C1 (stereo not drawn) [Example 220, 2-Amino-4-{methyl-[2-(9H-pyrido[2,3-b]indol-4-yl)-5-trifluoromethyl-pyrido[3,4-d]pyrimidin-4-yl]-amino}-cyclopentanol]
27 | < 100 | Fc1ccc(Cl)c(-c2cc3c(-c4nc(N5CCNCC5)c5c(C6CC6)cncc5n4)ccnc3[nH]2)c1 [Example 222, 2-[2-(2-Chloro-5-fluoro-phenyl)-1H-pyrrolo[2,3-b]pyridin-4-yl]-5-cyclopropyl-4-piperazin-1-yl-pyrido[3,4-d]pyrimidine]
